{"source": "patent US5512548A", "about": "“CETP inhibitor polypeptide, antibodies against the synthetic polypeptide and prophylactic and therapeutic anti-atherosclerosis treatments” (Southwest Foundation for Biomedical Research, priority 1994, dated 1996)", "test_system": "CETP", "test": "Cholesteryl ester transfer assay (CE transfer from 3H CE-HDL3 to VLDL+LDL with LPDS as CETP source)", "format": "biochemical, baboon (Papio sp.)", "details": "electroeluted from gels, increasing concentrations, lipoproteins from low HDL1 baboons", "experimental": "The CE transfer activity of a sample was assayed by a modification of a procedure described previously (Kushwaha et al, (1986), supra).\nBriefly, ^3 H CE-labeled HDL3 containing 50-100 μg of CE from low HDL1 baboons was incubated with VLDL+LDL containing 100-300 μg CE in the presence of LPDS. The acceptor lipoproteins and the LPDS were obtained from low HDL1 baboon plasma (chow diet). In some cases the HDL3 was obtained from high HDL1 baboons maintained on the HCHF diet.\nThe incubations were carried out at 4° C. (control) and 37° C. for 4-6 hrs, and terminated by placing the samples on ice. The assay mixture was then ultracentrifuged to separate VLDL+LDL having a […], and the radioactivity in the lipoproteins was counted as described previously (Kushwaha et al, (1986), supra). Any difference observed in the radioactivity transferred from HDL to VLDL+LDL at 4° C. and 37° C. was attributed to CETP activity in the LPDS.\nTime course experiments gave a linear response up to 7 hrs. Similarly, the CETP activity was linear with increasing LPDS, up to 140 μl LPDS, which was derived from an equivalent volume of plasma. […]\nThe percent difference between the control experiment and the assay with inhibitor peptide was expressed as the inhibitor activity. […]", "data": [{"substance": "Albumin", "values": [{"measurement": "effect on the transfer of CE from HDL to VLDL+LDL (CETP activity)", "value": "no effect"}]}]}
